Measured values reported in patent US9023855B2, “Compounds” (Chiesi Farmaceutici S.p.A., priority 2011, dated 2015).

Each compound was assayed against T1, human neutrophil elastase (HNE) (Homo sapiens, UniProt P08246) (assay: HNE enzyme assay (fluorogenic peptide substrate MeOSuc-Ala-Ala-Pro-Val-AMC)). Details: human leukocyte elastase, substrate 100 μM, 25° C., 30 minutes, at least two separate experiments; read-out: HNE inhibition (IC50 values).
T1 construct: purchased Sigma E8140
T1 sequence (P08246 30-267): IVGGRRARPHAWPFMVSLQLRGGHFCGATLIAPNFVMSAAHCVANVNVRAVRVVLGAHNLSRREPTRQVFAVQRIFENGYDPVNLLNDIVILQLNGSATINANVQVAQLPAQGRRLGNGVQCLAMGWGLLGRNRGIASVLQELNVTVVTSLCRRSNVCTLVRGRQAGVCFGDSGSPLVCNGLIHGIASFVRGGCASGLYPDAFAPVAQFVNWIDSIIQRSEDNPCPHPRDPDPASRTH
Format: biochemical
Procedure: Compounds of this invention were tested for potency in a human neutrophil elastase (HNE) enzyme activity assay.
Assays were performed in 96-well plates in a total assay volume of 100 μl. The final concentration of elastase enzyme (human leukocyte elastase, Sigma E8140) was 0.0036 units/well […]. The peptide substrate (MeOSuc-Ala-Ala-Pro-Val-AMC, Calbiochem #324740) was used at a final concentration of 100 μM. The final concentration of DMSO was 1% in the assay buffer (0.05M Tris.HCl, 0.1M NaCl, 0.1M CaCl2, 0.0005% brij-35, pH 7.5). The enzymatic reaction was started by addition of the enzyme and incubated at 25° C. for 30 minutes. After incubation, the reaction was stopped by addition of soybean trypsin inhibitor (Sigma T9003) at a final concentration of 50 μg/well. Fluorescence was measured using a Molecular Devices fluorescence plate reader using 380 nm excitation and 460 nm emission wavelengths.
A dose response to each compound was performed, and the effect of the compound in each experiment was expressed as a percentage inhibition of the control enzyme fluorescence. Dose response curves were plotted and compound potency (IC50) was determined. Compounds were tested in at least two separate experiments.

IC50, < 20 nM:
COC(=O)C1=C(C)N(c2cccc(C(F)(F)F)c2)c2nn(Cc3ccc(CN(C)C)cc3)c(=O)n2C1c1ccc(C#N)cc1 (stereo not drawn) [Example 21, 5-(4-Cyano-phenyl)-2-(4-dimethylaminomethyl-benzyl)-7-methyl-3-oxo-8-(3-trifluoromethyl-phenyl)-2,3,5,8-tetrahydro-[1,2,4]triazolo[4,3-a]pyrimidine-6-carboxylic acid methyl ester]
COC(=O)C1=C(C)N(c2cccc(C(F)(F)F)c2)c2nn(Cc3ccc(C[N+](C)(C)C)cc3)c(=O)n2C1c1ccc(C#N)cc1 (stereo not drawn) [Example 22, {4-[5-(4-Cyano-phenyl)-6-methoxycarbonyl-7-methyl-3-oxo-8-(3-trifluoromethyl-phenyl)-5,8-dihydro-[1,2,4]triazolo[4,3-a]pyrimidin-2-ylmethyl]-benzyl}-trimethyl-ammonium bromide]
COC(=O)C1=C(C)N(c2cccc(C(F)(F)F)c2)c2nn(Cc3ccc(S(C)(=O)=O)cn3)c(=O)n2C1c1ccc(C#N)cc1 (stereo not drawn) [Example 23, 5-(4-Cyano-phenyl)-2-(5-methanesulfonyl-pyridin-2-ylmethyl)-7-methyl-3-oxo-8-(3-trifluoromethyl-phenyl)-2,3,5,8-tetrahydro-[1,2,4]triazolo[4,3-a]pyrimidine-6-carboxylic acid methyl ester]
COC(=O)C1=C(C)N(c2cccc(C(F)(F)F)c2)c2nn(CCCN3CCCC3=O)c(=O)n2C1c1ccc(C#N)cc1 (stereo not drawn) [Example 24, 5-(4-Cyano-phenyl)-7-methyl-3-oxo-2-[3-(2-oxo-pyrrolidin-1-yl)-propyl]-8-(3-trifluoromethyl-phenyl)-2,3,5,8-tetrahydro-[1,2,4]triazolo[4,3-a]pyrimidine-6-carboxylic acid methyl ester]
COC(=O)C1=C(C)N(c2cccc(C(F)(F)F)c2)c2nn(CC(=O)N(C)CCN(C)C)c(=O)n2C1c1ccc(C#N)cc1 (stereo not drawn) [Example 25, 5-(4-Cyano-phenyl)-2-{[(2-dimethylamino-ethyl)-methyl-carbamoyl]-methyl}-7-methyl-3-oxo-8-(3-trifluoromethyl-phenyl)-2,3,5,8-tetrahydro-[1,2,4]triazolo[4,3-a]pyrimidine-6-carboxylic acid methyl ester]
COC(=O)C1=C(C)N(c2cccc(C(F)(F)F)c2)c2nn(CC(=O)N(C)CCCN(C)C)c(=O)n2C1c1ccc(C#N)cc1 (stereo not drawn) [Example 26, 5-(4-Cyano-phenyl)-2-{[(3-dimethylamino-propyl)-methyl-carbamoyl]-methyl}-7-methyl-3-oxo-8-(3-trifluoromethyl-phenyl)-2,3,5,8-tetrahydro-[1,2,4]triazolo[4,3-a]pyrimidine-6-carboxylic acid methyl ester]
COC(=O)C1=C(C)N(c2cccc(C(F)(F)F)c2)c2nn(CC(=O)N(C)CC[N+](C)(C)C)c(=O)n2C1c1ccc(C#N)cc1 (stereo not drawn) [Example 27, [2-({2-[5-(4-Cyano-phenyl)-6-methoxycarbonyl-7-methyl-3-oxo-8-(3-trifluoromethyl-phenyl)-5,8-dihydro-[1,2,4]triazolo[4,3-a]pyrimidin-2-yl]-acetyl}-methyl-amino)-ethyl]trimethyl-ammonium bromide]
COC(=O)C1=C(C)N(c2cccc(C(F)(F)F)c2)c2nn(CC(=O)N(C)CCC[N+](C)(C)C)c(=O)n2C1c1ccc(C#N)cc1 (stereo not drawn) [Example 28, [3-({2-[5-(4-Cyano-phenyl)-6-methoxycarbonyl-7-methyl-3-oxo-8-(3-trifluoromethyl-phenyl)-5,8-dihydro-[1,2,4]triazolo[4,3-a]pyrimidin-2-yl]-acetyl}-methyl-amino)propyl]-trimethyl-ammonium; bromide]
COC(=O)C1=C(C)N(c2cccc(C(F)(F)F)c2)c2nn(CC(=O)N(C)CCCCN(C)C)c(=O)n2C1c1ccc(C#N)cc1 (stereo not drawn) [Example 29, 5-(4-Cyano-phenyl)-2-{[(4-dimethylamino-butyl)-methyl-carbamoyl]-methyl}-7-methyl-3-oxo-8-(3-trifluoromethyl-phenyl)-2,3,5,8-tetrahydro-[1,2,4]triazolo[4,3-a]pyrimidine-6-carboxylic acid methyl ester]
COC(=O)C1=C(C)N(c2cccc(C(F)(F)F)c2)c2nn(CC(=O)N(C)CCCCCN(C)C)c(=O)n2C1c1ccc(C#N)cc1 (stereo not drawn) [Example 30, 5-(4-Cyano-phenyl)-2-{[(5-dimethylamino-pentyl)-methyl-carbamoyl]-methyl}-7-methyl-3-oxo-8-(3-trifluoromethyl-phenyl)-2,3,5,8-tetrahydro-[1,2,4]triazolo[4,3-a]pyrimidine-6-carboxylic acid methyl ester]
COC(=O)C1=C(C)N(c2cccc(C(F)(F)F)c2)c2nn(CC(=O)N(C)CCCC[N+](C)(C)C)c(=O)n2C1c1ccc(C#N)cc1 (stereo not drawn) [Example 31, [4-({2-[5-(4-Cyano-phenyl)-6-methoxycarbonyl-7-methyl-3-oxo-8-(3-trifluoromethyl-phenyl)-5,8-dihydro-[1,2,4]triazolo[4,3-a]pyrimidin-2-yl]-acetyl}-methyl-amino)-butyl]-trimethylammonium bromide]
COC(=O)C1=C(C)N(c2cccc(C(F)(F)F)c2)c2nn(CC(=O)N(C)CCCCC[N+](C)(C)C)c(=O)n2C1c1ccc(C#N)cc1 (stereo not drawn) [Example 32, [5-({2-[5-(4-Cyano-phenyl)-6-methoxycarbonyl-7-methyl-3-oxo-8-(3-trifluoromethyl-phenyl)-5,8-dihydro-[1,2,4]triazolo[4,3-a]pyrimidin-2-yl]-acetyl}-methyl-amino)pentyl]-trimethyl-ammonium; bromide]
COC(=O)C1=C(C)N(c2cccc(C(F)(F)F)c2)c2nn(CC(=O)N(C)CCCCCN(C)C)c(=O)n2[C@@H]1c1ccc(C#N)cc1 [Example 33, (R)-5-(4-Cyano-phenyl)-2-{[(5-dimethylamino-pentyl)-methyl-carbamoyl]-methyl}-7-methyl-3-oxo-8-(3-trifluoromethyl-phenyl)-2,3,5,8-tetrahydro-[1,2,4]triazolo[4,3-a]pyrimidine-6-carboxylic acid methyl ester]
COC(=O)C1=C(C)N(c2cccc(C(F)(F)F)c2)c2nn(CC(=O)N(C)CCCCC[N+](C)(C)C)c(=O)n2[C@@H]1c1ccc(C#N)cc1 [Example 34, (R)-[5-({2-[5-(4-Cyano-phenyl)-6-methoxycarbonyl-7-methyl-3-oxo-8-(3-trifluoromethyl-phenyl)-5,8-dihydro-[1,2,4]triazolo[4,3-a]pyrimidin-2-yl]-acetyl}-methyl-amino)pentyl]-trimethyl-ammonium chloride]
COC(=O)C1=C(C)N(c2cccc(C(F)(F)F)c2)c2nn(CCCN(C)C(C)=O)c(=O)n2C1c1ccc(C#N)cc1 (stereo not drawn) [Example 35, 2-[3-(Acetyl-methyl-amino)-propyl]-5-(4-cyano-phenyl)-7-methyl-3-oxo-8-(3-trifluoromethylphenyl)-2,3,5,8-tetrahydro-[1,2,4]triazolo[4,3-a]pyrimidine-6-carboxylic acidmethyl ester]
COC(=O)C1=C(C)N(c2cccc(C(F)(F)F)c2)c2nn(CCCN(C)S(C)(=O)=O)c(=O)n2C1c1ccc(C#N)cc1 (stereo not drawn) [Example 36, 5-(4-Cyano-phenyl)-2-[3-(methanesulfonyl-methyl-amino)-propyl]-7-methyl-3-oxo-8-(3-trifluoromethyl-phenyl)-2,3,5,8-tetrahydro-[1,2,4]triazolo[4,3-a]pyrimidine-6-carboxylic acidmethyl ester]
COC(=O)C1=C(C)N(c2cccc(C(F)(F)F)c2)c2nn(CCCS(=O)(=O)CCC[N+](C)(C)C)c(=O)n2C1c1ccc(C#N)cc1 (stereo not drawn) [Example 37, (3-{3-[5-(4-Cyano-phenyl)-6-methoxycarbonyl-7-methyl-3-oxo-8-(3-trifluoromethyl-phenyl)-5,8-dihydro-[1,2,4]triazolo[4,3-a]pyrimidin-2-yl]-propane-1-sulfonyl}-propyl)-trimethylammonium toluene-4-sulfonate]
COC(=O)C1=C(C)N(c2cccc(C(F)(F)F)c2)c2nn(CCCS(=O)(=O)CCC[N+](C)(C)C)c(=O)n2[C@@H]1c1ccc(C#N)cc1 [Example 38, (R)-(3-{3-[5-(4-Cyano-phenyl)-6-methoxycarbonyl-7-methyl-3-oxo-8-(3-trifluoromethyl-phenyl)-5,8-dihydro-[1,2,4]triazolo[4,3-a]pyrimidin-2-yl]-propane-1-sulfonyl}-propyl)-trimethylammonium chloride]
